Values of other authors as cited in patent US20050119262A1, “Method for preventing or treating an optic neuropathy with a cox-2 inhibitor and an intraocular pressure reducing agent” (Pharmacia Corporation, priority 2003, published 2005).

Settings: patients with ocular hypertension and glaucoma

CC(=O)Oc1ccccc1C(=O)O [acetylsalicylic acid]
effect on IOP: no affect on IOP
